# Activity calls are given as the source filed them.
# Legend:
# Estrogen receptor = molecular target: T1, Estrogen receptor (Homo sapiens, UniProt P03372); test: ERα coactivator recruitment enhancers – biochemical, TR-FRET, ERα LBD, dose response (AID 737)
# T1 sequence (P03372 whole entry): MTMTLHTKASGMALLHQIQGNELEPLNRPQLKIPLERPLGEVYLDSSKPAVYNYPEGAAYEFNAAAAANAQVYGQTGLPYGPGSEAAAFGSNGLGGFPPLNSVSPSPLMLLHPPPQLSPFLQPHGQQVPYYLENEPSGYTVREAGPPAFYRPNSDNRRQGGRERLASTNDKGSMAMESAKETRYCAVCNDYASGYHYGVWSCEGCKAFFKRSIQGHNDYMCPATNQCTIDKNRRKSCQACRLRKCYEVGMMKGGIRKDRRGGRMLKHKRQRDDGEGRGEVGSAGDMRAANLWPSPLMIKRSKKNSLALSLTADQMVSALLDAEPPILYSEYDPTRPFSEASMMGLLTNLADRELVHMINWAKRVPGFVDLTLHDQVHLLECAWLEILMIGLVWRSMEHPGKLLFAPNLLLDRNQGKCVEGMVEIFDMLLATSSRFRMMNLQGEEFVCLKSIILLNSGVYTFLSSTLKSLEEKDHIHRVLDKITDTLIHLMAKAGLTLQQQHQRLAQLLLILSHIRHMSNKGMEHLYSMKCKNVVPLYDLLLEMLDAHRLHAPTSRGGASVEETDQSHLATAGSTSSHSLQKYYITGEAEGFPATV
# [1] = molecular target: T2, Nuclear receptor subfamily 0 group B member 1 (Homo sapiens, UniProt P51843); type: functional, cell-based;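 also: HEK293T cells transfected with SF-1 and DAX-1 plus StAR promoter luciferase reporter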
# T2 sequence (P51843 whole entry): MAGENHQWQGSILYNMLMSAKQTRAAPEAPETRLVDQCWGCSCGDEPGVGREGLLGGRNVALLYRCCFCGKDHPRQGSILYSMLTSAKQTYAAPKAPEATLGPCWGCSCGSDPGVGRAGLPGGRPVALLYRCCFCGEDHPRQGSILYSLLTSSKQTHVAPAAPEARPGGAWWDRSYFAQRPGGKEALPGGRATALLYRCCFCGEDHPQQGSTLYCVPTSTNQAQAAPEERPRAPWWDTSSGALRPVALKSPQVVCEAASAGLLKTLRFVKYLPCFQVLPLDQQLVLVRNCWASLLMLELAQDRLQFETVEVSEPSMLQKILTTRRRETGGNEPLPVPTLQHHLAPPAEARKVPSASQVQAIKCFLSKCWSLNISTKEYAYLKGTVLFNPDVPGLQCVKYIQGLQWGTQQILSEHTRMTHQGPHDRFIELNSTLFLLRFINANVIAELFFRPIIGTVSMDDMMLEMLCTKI
# cells = type: functional, cell-based
# Protein Tat = Protein Tat (Human immunodeficiency virus type 1 group M subtype B (isolate HXB2)(HIV-1), UniProt P04608); type: functional;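 also: tat binding to TAR RNA read out by fluorescence polarization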
# Sequence of Protein Tat (P04608 whole entry): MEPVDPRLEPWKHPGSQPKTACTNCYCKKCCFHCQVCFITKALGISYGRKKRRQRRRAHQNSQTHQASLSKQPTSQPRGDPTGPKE
# [2] = molecular target: Glutathione-S-transferase (Schistosoma japonicum, UniProt Q26513); test: GST-antibody interaction or FRET quenching – biochemical, TR-FRET, artefact control for Vif-APOBEC3G degradation inhibitor project, dose response (AID 1117362); type: functional
# Sequence of Glutathione-S-transferase (Q26513 whole entry): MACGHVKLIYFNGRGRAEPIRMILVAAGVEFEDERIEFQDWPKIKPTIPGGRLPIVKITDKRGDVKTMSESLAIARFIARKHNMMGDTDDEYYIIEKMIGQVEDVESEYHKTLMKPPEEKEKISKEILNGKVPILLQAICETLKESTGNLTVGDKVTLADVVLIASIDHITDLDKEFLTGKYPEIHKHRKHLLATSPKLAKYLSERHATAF
# Nonstructural protein 1 = Nonstructural protein 1 (Influenza A virus, UniProt Q194T2); type: functional, Influenza A virus (A/California/07/2009(H1N1))
# Sequence of Nonstructural protein 1 (Q194T2 whole entry): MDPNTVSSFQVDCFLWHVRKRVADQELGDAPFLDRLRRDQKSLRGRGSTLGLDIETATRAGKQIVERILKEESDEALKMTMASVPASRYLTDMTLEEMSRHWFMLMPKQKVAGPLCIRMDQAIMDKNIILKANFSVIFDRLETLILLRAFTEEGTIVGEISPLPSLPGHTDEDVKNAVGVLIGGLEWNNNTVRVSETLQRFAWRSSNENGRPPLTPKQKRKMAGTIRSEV
# NADPH oxidase 1 = NADPH oxidase 1 (Homo sapiens, UniProt Q9Y5S8); type: functional, cell-based;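 also: Cell-based assay with luminescence read-out, IC50 derived from inhibitor dose-response curves; intracellular ROS from endogenous NOX1 in intact HT29 colon cancer cells; potency of inhibitors that lower the ROS luminescence signal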
# Sequence of NADPH oxidase 1 (Q9Y5S8 whole entry): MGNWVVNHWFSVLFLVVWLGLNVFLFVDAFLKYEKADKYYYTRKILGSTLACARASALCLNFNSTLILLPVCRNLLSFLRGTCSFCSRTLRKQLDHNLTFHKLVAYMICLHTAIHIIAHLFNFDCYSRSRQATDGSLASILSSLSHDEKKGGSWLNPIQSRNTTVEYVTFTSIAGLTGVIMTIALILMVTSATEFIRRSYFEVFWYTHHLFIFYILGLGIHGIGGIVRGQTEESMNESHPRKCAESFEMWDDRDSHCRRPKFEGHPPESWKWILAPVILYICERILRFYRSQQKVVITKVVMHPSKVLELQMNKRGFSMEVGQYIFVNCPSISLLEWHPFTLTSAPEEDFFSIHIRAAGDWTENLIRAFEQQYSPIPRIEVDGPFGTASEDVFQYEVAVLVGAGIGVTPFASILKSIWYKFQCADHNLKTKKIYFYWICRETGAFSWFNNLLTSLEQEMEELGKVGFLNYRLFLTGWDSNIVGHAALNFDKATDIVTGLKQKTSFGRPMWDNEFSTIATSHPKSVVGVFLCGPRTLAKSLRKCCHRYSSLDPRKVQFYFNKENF
# Estrogen receptor beta [3] = molecular target: T3, Estrogen receptor beta (Homo sapiens, UniProt Q92731); test: blockers of SRC-3 recruitment to ERβ – biochemical, ELISA, streptavidin-HRP readout, orthogonal assay, confirmation (AID 1060)
# T3 sequence (Q92731 whole entry): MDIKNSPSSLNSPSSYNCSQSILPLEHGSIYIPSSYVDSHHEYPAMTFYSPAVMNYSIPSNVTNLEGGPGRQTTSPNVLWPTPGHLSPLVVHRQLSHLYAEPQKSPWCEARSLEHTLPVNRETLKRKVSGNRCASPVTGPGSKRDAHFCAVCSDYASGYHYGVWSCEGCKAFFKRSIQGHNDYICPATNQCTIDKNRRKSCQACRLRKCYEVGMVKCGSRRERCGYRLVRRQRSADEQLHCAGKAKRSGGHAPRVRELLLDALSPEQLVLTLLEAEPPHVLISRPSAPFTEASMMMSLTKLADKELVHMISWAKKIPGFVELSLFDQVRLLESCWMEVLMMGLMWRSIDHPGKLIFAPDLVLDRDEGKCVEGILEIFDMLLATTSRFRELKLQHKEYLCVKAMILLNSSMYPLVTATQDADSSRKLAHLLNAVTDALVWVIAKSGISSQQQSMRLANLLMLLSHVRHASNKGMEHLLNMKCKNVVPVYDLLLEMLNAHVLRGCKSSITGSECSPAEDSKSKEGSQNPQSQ
# Estrogen receptor beta [4] = molecular target: T3, Estrogen receptor beta
# [5] = molecular target: Solute carrier family 12 member 2/member 5 (Homo sapiens, UniProt P55011+Q9H2X9); test: KCC2 and NKCC1 inhibition by rubidium flux, cell-based, NKCC1 counter-screen (AID 1734); type: functional, HEK293
# [6] = molecular target: T4, Mannose-6-phosphate isomerase (Homo sapiens, UniProt P34949); test: MPI inhibition at elevated mannose 6-phosphate – biochemical, fluorescence intensity, high mannose 6-phosphate, primary screen (AID 1220)
# T4 sequence (P34949 whole entry): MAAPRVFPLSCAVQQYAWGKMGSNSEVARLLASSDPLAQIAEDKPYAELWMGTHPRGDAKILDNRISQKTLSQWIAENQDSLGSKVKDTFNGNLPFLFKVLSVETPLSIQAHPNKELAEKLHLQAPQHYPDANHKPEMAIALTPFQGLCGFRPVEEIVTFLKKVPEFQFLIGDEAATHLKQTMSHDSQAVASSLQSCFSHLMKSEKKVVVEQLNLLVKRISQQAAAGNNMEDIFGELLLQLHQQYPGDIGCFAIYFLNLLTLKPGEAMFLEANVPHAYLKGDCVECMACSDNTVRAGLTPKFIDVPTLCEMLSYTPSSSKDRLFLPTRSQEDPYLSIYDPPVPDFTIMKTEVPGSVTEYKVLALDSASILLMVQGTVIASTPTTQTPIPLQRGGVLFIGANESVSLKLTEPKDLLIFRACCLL
# Procathepsin L = Procathepsin L (Homo sapiens, UniProt P07711); test: CTSL1 protease inhibition – biochemical, QFRET, 1536-well, counter-screen for M1/M17 aminopeptidase inhibitor project, dose response (AID 2214)
# Sequence of Procathepsin L (P07711 whole entry): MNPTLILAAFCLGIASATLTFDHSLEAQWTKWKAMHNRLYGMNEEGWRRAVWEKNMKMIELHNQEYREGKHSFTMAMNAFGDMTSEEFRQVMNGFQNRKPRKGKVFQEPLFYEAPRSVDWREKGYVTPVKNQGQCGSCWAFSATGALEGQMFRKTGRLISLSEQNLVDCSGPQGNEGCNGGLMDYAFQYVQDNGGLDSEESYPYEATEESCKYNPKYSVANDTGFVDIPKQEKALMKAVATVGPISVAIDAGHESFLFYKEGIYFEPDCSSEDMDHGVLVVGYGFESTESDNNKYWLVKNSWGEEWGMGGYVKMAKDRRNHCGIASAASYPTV
# Leucine aminopeptidase = molecular target: T5, Leucine aminopeptidase (Plasmodium falciparum 3D7, UniProt Q8IL11); test: P. falciparum M17LAP inhibitors, primary screen, biochemical, fluorogenic H-Leu-NHMec substrate, 1536-well (AID 1619); type: functional
# T5 sequence (Q8IL11 whole entry): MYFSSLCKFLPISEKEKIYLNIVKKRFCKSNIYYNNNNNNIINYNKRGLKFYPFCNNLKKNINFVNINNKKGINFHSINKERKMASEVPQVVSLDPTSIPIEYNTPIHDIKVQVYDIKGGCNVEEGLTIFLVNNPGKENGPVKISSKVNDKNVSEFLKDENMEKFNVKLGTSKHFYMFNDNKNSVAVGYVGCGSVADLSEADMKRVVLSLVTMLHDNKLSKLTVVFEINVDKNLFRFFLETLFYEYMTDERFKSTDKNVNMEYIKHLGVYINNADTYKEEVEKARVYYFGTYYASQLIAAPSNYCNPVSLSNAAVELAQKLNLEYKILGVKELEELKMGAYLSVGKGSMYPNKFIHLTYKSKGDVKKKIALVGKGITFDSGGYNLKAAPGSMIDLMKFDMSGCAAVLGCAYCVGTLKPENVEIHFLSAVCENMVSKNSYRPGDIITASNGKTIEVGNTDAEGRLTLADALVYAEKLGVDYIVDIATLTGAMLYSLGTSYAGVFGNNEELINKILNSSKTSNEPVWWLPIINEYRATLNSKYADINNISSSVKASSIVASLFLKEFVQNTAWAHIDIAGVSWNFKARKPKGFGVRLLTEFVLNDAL
# Aspartyl aminopeptidase = molecular target: T6, Aspartyl aminopeptidase (Plasmodium falciparum 3D7, UniProt Q8I2J3); test: Counterscreen for inhibitors of M1 and M17 aminopeptidases: QFRET-based biochemical high throughput dose response assay for inhibitors of the Plasmodium falciparum M18 Aspartyl Aminopeptidase (PFM18AAP). [Related PubChem assays: 1619 (Screening assay (M17LAP inhibitors).), 1445 (Screening assay (M1AAP inhibitors).)]
# T6 sequence (Q8I2J3 whole entry): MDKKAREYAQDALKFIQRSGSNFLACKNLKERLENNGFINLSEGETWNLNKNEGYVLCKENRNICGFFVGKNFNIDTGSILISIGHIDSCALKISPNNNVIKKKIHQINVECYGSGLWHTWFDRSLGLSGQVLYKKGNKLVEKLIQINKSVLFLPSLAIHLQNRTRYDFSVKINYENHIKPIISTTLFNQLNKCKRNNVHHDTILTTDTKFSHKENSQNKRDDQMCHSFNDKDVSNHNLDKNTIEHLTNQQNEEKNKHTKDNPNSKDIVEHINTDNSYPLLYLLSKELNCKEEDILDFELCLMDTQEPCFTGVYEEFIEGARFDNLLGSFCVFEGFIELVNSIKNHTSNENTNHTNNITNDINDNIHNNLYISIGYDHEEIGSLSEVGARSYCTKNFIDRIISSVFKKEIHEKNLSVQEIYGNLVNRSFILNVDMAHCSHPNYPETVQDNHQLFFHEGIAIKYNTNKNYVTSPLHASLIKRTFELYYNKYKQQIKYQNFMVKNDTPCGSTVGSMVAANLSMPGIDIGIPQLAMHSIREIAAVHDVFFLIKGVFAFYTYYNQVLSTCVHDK
structure (smiles),measurement,setting,value
Cc1cc(-c2nnc3sc(-c4ccc(Cl)cc4Cl)nn23)n[nH]1,EC50,Estrogen receptor,15.4 µM (active)
CCCn1cnc2cc(NCc3ccccn3)ccc21,IC50,[1],> 67.5 µM (inactive)
same,IC50,cells,> 67.5 µM (inactive)
same,IC50,Protein Tat,> 100 µM (active)
same,IC50,[2],> 100 µM (active)
same,IC50,Nonstructural protein 1,> 100 µM (active)
O=C(Oc1ccccc1[N+](=O)[O-])c1sc2ccccc2c1Cl,IC50,NADPH oxidase 1,> 17 µM (not active)
Cc1ccc(-c2nnc(CSc3nc4cc5c(cc4cc3C)OCO5)o2)cc1,IC50,Estrogen receptor beta [3],0.0359 µM (not active)
same,IC50,Estrogen receptor beta [4],> 50 µM (not active)
O=C(Cn1cnc2c(nnn2Cc2ccc(F)cc2)c1=O)N1CCCc2ccccc21,IC50,[5],1.3 µM (active)
C=CCn1c(SCC(=O)N2N=C(c3ccco3)CC2c2ccco2)nnc1-c1ccncc1 (centres undefined),IC50,[6],> 50 µM (not active)
Cc1ccc(NC(=O)CSc2nnc(C)c(=O)[nH]2)cc1C,IC50,Procathepsin L,> 59.6 µM (not active)
same,IC50,Leucine aminopeptidase,3.51 µM (active)
same,IC50,Aspartyl aminopeptidase,> 73.5 µM (not active)

# — ChEMBL document CHEMBL1201862, “PubChem BioAssay data set” (2004)
